Experimental data published in patent US20050108047A1, “Business methods for commercializing antibiotics” (priority 2003, published 2005).

Tested on: E. coli strain MG1655 and isogenic loss of function strains
Assay: Stressful Lifestyle Adaptive Mutation (SLAM) assay with ciprofloxacin
Assay type: cell-based
Procedure: […]. Five colonies of each strain, selected from 30 ug/mL kan plates, were grown for 24 hours in LB at 37° C. Dilutions of each culture were made in duplicate and plated on LB plates to determine the number of viable cells.
Also, two 150 μL cultures from each strain were plated on five additional plates for use in ‘survival’ experiments (see below). […] Every twenty-four hours for thirteen days post-plating, colonies were counted and marked and up to 10 representative colonies per strain were stocked in 15% glycerol and stored at −80° C., for use in the reconstruction experiments (see below). […]. After thirteen days, a reconstruction experiment [see FIG. 6; also see Bull, H J, Lombardo, M J, Rosenberg, S M: Stationary-phase mutation in the bacterial chromosome: recombination protein and DNA polymerase IV dependence. Proc Natl Acad Sci USA 2001, 98:8334-8341; and Rosenberg, S M: Evolving responsively: adaptive mutation. Nature Rev Genet 2001, 2:504-515] was performed to determine which of the resistant colonies isolated had evolved resistance via adaptive mutation after exposure to the antibiotic. […]. Only those colonies that grew in a shorter time during the reconstruction experiment than in the original experiment were considered to have acquired an adaptive mutation, i.e. occurred after exposure to the antibiotic. […].
[…]. […]

SMILES: O=C(O)c1cn(C2CC2)c2cc(N3CCNCC3)c(F)cc2c1=O [ciprofloxacin]
- ability to evolve resistance to ciprofloxacin, LexA(Ind−) strain versus wild type (LexA S119A mutant, 35 ng/mL ciprofloxacin): more than two orders of magnitude less able to evolve resistance
- decrease in rate of evolving the ability to grow at 60 ng/mL ciprofloxacin, LexA mutant (mutants selected at 35 ng/mL ciprofloxacin): 300 fold
